Results published in US20070104644A1, “Inhibitor imaging agents” (priority 2003, published 2007).
Blank lines part the entries; values can stand above or below the molecule they belong to. Numbered stars: 1 amine (or outer) side, 2 acyl side, 3 side chain; on linkers, the order of the positions; unused ones are H or OH. Square brackets hold non-standard residues; d marks the D form. Peptide text beside a SMILES is read from it. * marks the point of attachment. Tyr(3-I) = N[C@@H](Cc1ccc(O)c(I)c1)C(=O)O; X2 = O=C(NO)C1(N(CCC(=O)[*:2])[*:1])CCCC1; X1 = O=S(=O)(c1ccc(Oc2ccc(F)cc2)cc1)*

Key:
[1] = target: MMP-8 (Homo sapiens, UniProt P22894); experiment: MMP-8 colorimetric assay kit (Biomol AK-414); type: biochemical
Protocol: (§1) Compounds were screened using the following commercially available Biomol assay kits: • MMP-1 colorimetric assay kit—Catalogue number AK-404, • MMP-2 colorimetric assay kit—Catalogue number AK-408, • MMP-8 calorimetric assay kit—Catalogue number AK-414, • MMP-9 calorimetric assay kit—Catalogue number AK-410, • MMP-12 colorimetric assay kit—Catalogue number AK-402, Which are available from Affiniti Research Products Ltd. (Palatine House, Matford Court, Exeter, EX2 8NL, UK).
(§2) Inhibitors were provided in powdered form, and stored at 4° C. For each inhibitor a 1 mM stock solution in DMSO was prepared, dispensed into 20 μl aliquots and these aliquots stored at −20° C. The stock solution was diluted to give 8 inhibitor concentrations (recommended: 50 μM, 5 μM, 500 nM, 50 nM, 5 nM, 500 pM, 50 pM and 5 pM). Dilutions were made in the kit assay buffer. A five-fold dilution of the inhibitor stocks is made on addition to the assay wells, therefore final concentration range was from 10 μM to 1 pM.
(§3) Details are provided with the commercial kit, but can be summarised as follows: • Prepare test compound dilutions as above, • Add assay buffer to plate, • Add test compounds to plate • Prepare standard kit inhibitor NNGH (see kit for dilution factor) • Add NNGH to control inhibitor wells • Prepare MMP enzyme (see kit for dilution factor) • Add MMP to plate • Incubate plate at 37° C. for ˜15 min • Prepare thiopeptolide substrate (see kit for dilution factor) • Add substrate to plate • Count every 2 min for 1 hr, 37° C., 414 nm on a Labsystems iEMS plate reader (for MMP-1 count every 30 seconds for 20 minutes).

[2] = target: T1, MMP-1 (Homo sapiens, UniProt P03956); experiment: MMP-1 colorimetric assay kit (Biomol AK-404); type: biochemical
T1 sequence (P03956 100-469): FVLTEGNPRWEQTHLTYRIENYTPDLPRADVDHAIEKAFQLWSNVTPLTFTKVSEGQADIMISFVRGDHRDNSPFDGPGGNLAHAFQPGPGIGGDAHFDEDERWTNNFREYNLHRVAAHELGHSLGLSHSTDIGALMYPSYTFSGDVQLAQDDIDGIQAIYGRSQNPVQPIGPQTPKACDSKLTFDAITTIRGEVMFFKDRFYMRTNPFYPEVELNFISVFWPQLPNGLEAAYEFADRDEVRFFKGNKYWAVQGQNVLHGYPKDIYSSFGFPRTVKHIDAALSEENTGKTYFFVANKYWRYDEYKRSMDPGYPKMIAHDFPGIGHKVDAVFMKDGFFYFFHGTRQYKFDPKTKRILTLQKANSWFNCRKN
Protocol: as §1, §2, §3

[3] = target: T2, MMP-2 (Homo sapiens, UniProt P08253); experiment: MMP-2 colorimetric assay kit (Biomol AK-408); type: biochemical
T2 sequence (P08253 110-660): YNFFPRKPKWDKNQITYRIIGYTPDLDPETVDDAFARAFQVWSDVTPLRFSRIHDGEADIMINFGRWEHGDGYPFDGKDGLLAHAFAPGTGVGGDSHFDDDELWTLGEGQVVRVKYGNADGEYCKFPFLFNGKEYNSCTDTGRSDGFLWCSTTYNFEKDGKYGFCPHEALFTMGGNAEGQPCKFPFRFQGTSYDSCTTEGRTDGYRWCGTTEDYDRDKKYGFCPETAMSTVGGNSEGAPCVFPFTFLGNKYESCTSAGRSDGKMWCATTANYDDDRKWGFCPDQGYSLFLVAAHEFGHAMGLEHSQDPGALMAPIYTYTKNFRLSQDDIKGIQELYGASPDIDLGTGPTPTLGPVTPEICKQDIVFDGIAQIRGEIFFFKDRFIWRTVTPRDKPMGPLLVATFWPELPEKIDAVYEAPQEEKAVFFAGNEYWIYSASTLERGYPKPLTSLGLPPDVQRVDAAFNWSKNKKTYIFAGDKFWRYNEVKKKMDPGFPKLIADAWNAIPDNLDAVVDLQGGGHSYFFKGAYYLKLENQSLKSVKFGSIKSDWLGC
Protocol: as §1, §2, §3

[4] = target: MMP-9 (Homo sapiens, UniProt P14780); experiment: MMP-9 colorimetric assay kit (Biomol AK-410); type: biochemical
Protocol: as §1, §2, §3

[5] = tested on: Lewis lung carcinoma (LLC) tumour; experiment: Biodistribution in LLC tumour model in vivo; design: species or system C57BL/6 mice
Protocol: 1×10^6 Lewis lung carcinoma (LLC) cells are injected subcutaneously into right inner thigh of C57BL/6 mice. Tumours were allowed to grow for 15 days prior to biodistribution being carried out.
Biodistribution studies were performed in the LLC tumour model.
Biodistribution was performed in the LLC tumour model of Example 23 with Compounds 46B and 48B.

[6] = tested on: ApoE −/− mice, carotid artery; experiment: Biodistribution in ApoE ligation model of atherosclerosis (ligated and sham); type: in vivo
Source text: ApoE −/− mice are transgenic knock-out mice, which lack the ApoE gene, and are therefore unable to regulate their plasma cholesterol levels. As a consequence ApoE mice develop atherosclerotic lesions, a process which is accelerated with feeding of high fat diet. Further acceleration of lesion development can be achieved by ligating the carotid artery, resulting in advanced lesion formation within 4 weeks of surgery and high fat diet feeding.
Two controls have been used for these experiments: (1) ApoE sham animals in which the mice undergo the same surgical intervention but the sture is only passed beneath the carotid and then removed and, (2) C57BL/6 ligtaed animals which undergo the same surgical ligation and high fat feeding as the ApoE ligated mice. Literature reports have stated that these animals do have some level of tissue remodelling, but with lower active MMP levels [Ivan et al, Circulation, 105, 2686-2691 (2002)].

[7] = ApoE Ligated, 5 min post injection
[8] = ApoE Ligated, 60 min post injection
[9] = ApoE Sham, 60 min post injection

Sequence of MMP-9 (P14780 94-707): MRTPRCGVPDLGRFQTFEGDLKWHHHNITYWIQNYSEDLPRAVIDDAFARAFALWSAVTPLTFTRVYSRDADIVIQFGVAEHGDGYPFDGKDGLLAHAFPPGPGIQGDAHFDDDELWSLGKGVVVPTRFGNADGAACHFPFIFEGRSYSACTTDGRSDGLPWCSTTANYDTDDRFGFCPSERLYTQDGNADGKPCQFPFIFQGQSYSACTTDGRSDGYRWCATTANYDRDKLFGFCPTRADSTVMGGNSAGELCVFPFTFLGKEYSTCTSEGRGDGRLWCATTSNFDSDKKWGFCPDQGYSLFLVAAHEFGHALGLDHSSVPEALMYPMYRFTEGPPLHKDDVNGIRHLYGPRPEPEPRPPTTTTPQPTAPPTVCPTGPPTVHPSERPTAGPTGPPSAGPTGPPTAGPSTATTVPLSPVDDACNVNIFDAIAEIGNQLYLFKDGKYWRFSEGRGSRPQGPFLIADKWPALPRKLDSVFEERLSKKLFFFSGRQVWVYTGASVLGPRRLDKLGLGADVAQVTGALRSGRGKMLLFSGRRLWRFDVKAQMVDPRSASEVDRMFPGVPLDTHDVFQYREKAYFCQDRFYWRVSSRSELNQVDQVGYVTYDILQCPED
Sequence of MMP-8 (P22894 101-467): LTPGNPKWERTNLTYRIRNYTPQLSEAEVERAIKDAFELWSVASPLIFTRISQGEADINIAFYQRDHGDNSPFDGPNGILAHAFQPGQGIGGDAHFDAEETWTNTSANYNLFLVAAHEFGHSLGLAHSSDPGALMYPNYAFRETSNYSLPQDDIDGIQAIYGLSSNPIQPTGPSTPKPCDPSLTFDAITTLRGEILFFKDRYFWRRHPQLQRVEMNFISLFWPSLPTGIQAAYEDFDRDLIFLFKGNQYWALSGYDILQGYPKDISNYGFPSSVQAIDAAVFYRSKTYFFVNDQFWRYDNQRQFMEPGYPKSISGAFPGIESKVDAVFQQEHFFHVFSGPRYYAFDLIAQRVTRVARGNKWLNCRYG

Ki [1]: 0.87 nM
Ki [2]: 195 nM
Ki [3]: 1.15 nM
Ki [4]: 0.82 nM
SMILES: NC(=O)[C@H](Cc1ccc(O)c(I)c1)NC(=O)[C@H](CCC(=O)O)NC(=O)[C@H](CCC(=O)O)NC(=O)[C@H](CCC(=O)O)NC(=O)[C@H](CCC(=O)O)NC(=O)[C@H](CCC(=O)O)NC(=O)CCN(C1(C(=O)NO)CCCC1)S(=O)(=O)c1ccc(Oc2ccc(F)cc2)cc1 [Compound 21] (X1-[X2]EEEEE[Tyr(3-I)]-NH2)

GI excretion [5]: low GI excretion
Urinary excretion [5]: High urinary excretion
% ID Urinary (urinary excretion), mean ([5]; 5 min post injection): 9.82 % ID
% ID/g Tumour, mean ([5]; 5 min post injection): 2.58 % ID/g
Tumour/Blood, mean ([5]; 5 min post injection): 0.16
Tumour/Heart, mean ([5]; 5 min post injection): 0.48
Tumour/Lung, mean ([5]; 5 min post injection): 0.30
Tumour/Muscle, mean ([5]; 5 min post injection): 1.66
% ID Urinary (urinary excretion), mean ([5]; 30 min post injection): 35.20 % ID
% ID/g Tumour, mean ([5]; 30 min post injection): 2.67 % ID/g
Tumour/Blood, mean ([5]; 30 min post injection): 0.26
Tumour/Heart, mean ([5]; 30 min post injection): 0.75
Tumour/Lung, mean ([5]; 30 min post injection): 0.43
Tumour/Muscle, mean ([5]; 30 min post injection): 2.80
% ID Urinary (urinary excretion), mean ([5]; 60 min post injection): 54.06 % ID
% ID/g Tumour, mean ([5]; 60 min post injection): 2.03 % ID/g
Tumour/Blood, mean ([5]; 60 min post injection): 0.43
Tumour/Heart, mean ([5]; 60 min post injection): 1.31
Tumour/Lung, mean ([5]; 60 min post injection): 0.69
Tumour/Muscle, mean ([5]; 60 min post injection): 4.88
% ID Urinary (urinary excretion), mean ([5]; 120 min post injection): 64.10 % ID
% ID/g Tumour, mean ([5]; 120 min post injection): 1.34 % ID/g
Tumour/Blood, mean ([5]; 120 min post injection): 0.53
Tumour/Heart, mean ([5]; 120 min post injection): 1.54
Tumour/Lung, mean ([5]; 120 min post injection): 0.55
Tumour/Muscle, mean ([5]; 120 min post injection): 3.92
% ID/G Carotid, mean [6, 7]: 10.32 % ID/G
Carotid/Blood, mean [6, 7]: 0.46
Carotid/Heart, mean [6, 7]: 1.39
Carotid/Lung, mean [6, 7]: 1.01
% ID/G Carotid, mean [6, 8]: 10.85 % ID/G
Carotid/Blood, mean [6, 8]: 1.21
Carotid/Heart, mean [6, 8]: 3.94
Carotid/Lung, mean [6, 8]: 1.45
% ID/G Carotid, mean [6, 9]: 2.91 % ID/G
Carotid/Blood, mean [6, 9]: 0.69
Carotid/Heart, mean [6, 9]: 1.28
Carotid/Lung, mean [6, 9]: 0.70
SMILES: NC(=O)[C@H](Cc1ccc(O)c([123I])c1)NC(=O)CCOCCOCCOCCOCCOCCOCCOCCOCCOCCOCCOCCNC(=O)CCOCCOCCOCCOCCOCCOCCOCCOCCOCCOCCOCCNC(=O)CCN(C1(C(=O)NO)CCCC1)S(=O)(=O)c1ccc(Oc2ccc(F)cc2)cc1 [Compound 32A]
Blood clearance / retention [5]: high initial blood retention, which cleared with time
Tumour uptake and retention [5]: Good tumour uptake and retention were seen up to 1 hour post injection

Ki [3]: 2.19 nM
Ki [4]: 0.585 nM
SMILES: NCCCC[C@H](NC(=O)CCN(C1(C(=O)NO)CCCC1)S(=O)(=O)c1ccc(Oc2ccc(F)cc2)cc1)C(=O)N[C@@H](CCCCN)C(=O)N[C@@H](CCCCN)C(=O)N[C@@H](CCCCN)C(=O)N[C@@H](CCCCN)C(=O)NCCOCCOCCOCCNC(=O)COCC(=O)N[C@@H](Cc1ccc(O)c(I)c1)C(N)=O [Compound 42]
